From patent US20120156150A1, “Composition for Improving Skin Condition Comprising Extract from Black Tea as Active Ingredient” (Keimyung University Industry Academic Cooperation Foundation, priority 2010, published 2012)
Marks after values point to notes of the source that are not given here.

What was measured:
[1] = system: gp100 protein; test: Immunohistochemical HMB-45 staining (gp100); type: in vivo, brown guinea pig; details: week 4; 2% sample
Description: (§1) After dehydration, followed by washing with xylene and embedding in paraffin, 4 μm-thick samples were prepared. The sample was adhered on a coating slide and stained using the BenchMark XT automated immunostainer (Ventana Medical Systems, USA) after removing paraffin. […] Following reaction with S-100 and HMB-45 primary antibodies diluted to 1:100, the sample was washed with reaction buffer, reacted with biotin for 20 minutes, and then reacted with streptavidin for 25 minutes. After coloring with diaminobenzidine (DAB) using the Ventana detection kit), the sample was stained for observation using an optical microscope.

[2] = system: S-100 protein; test: Immunohistochemical S-100 staining; type: in vivo, brown guinea pig; details: week 4; 2% sample
Description: as §1

[3] = system: UVB-induced hyperpigmentation; test: Melanin index (mexameter), brown guinea pig; type: in vivo; details: 2% sample topical
Description: Three brown guinea pigs weighing 450-550 g were purchased from Oriental Yeast Co. Ltd. (OYC; Japan). The animals were accustomed to the test environment for 7 days. The animals were housed in individual cages under the environment of 22±1° C. and 50±5% relative humidity with 12-hour alternate dark/light cycles. Feed and water were given ad libitum.
UVB-induced hyperpigmentation was elicited on the back of the brown guinea pig according to the method of Choi et al. (2004). After anesthetizing the guinea pig with ketamine hydrochloride (100 mg/kg BW), 24 separate areas (φ 12 mm) on the skin of the back was exposed to UVB radiation (302-nm sunlamp). The areas were exposed to UVB of 500 mJ/cm^2 for 3 consecutive weeks, once a week. That is, a total of 1,500 mJ/cm^2 of UVB was radiated.
On day 10 after the final UVB radiation, 30 μL (1.06 mg/cm^2/day) of 2% HQ, EGCG, GT, WT or BT was topically applied for 4 weeks to the hyperpigmented areas (9 areas per each) using a micropipette, twice a day, and 4 days a week. Saline was used as control, and propylene glycol:ethanol:water (5:3:2) was used as vehicle control.
Before and after the topical application of the test sample, change in melanin pigmentation was measured 3 times in a non-invasive manner using a mexameter, once a week. The degree of pigmentation was analyzed by averaging the measured values.

[4] = Electron donating ability (DPPH radical scavenging, Blois' method); details: 800 μg/mL
Description: DPPH radical scavenging effect was measuring according to the Blois' method (1958). […] After adding 1 mL of the test sample in a test tube, 4×10^−4 M DPPH (4 mL) was added. The resulting mixture was shaken vigorously, allowed to stand in warm water of 60° C. for 10 seconds, and absorbance was measured at 525 nm. BHT was used as the positive control group. Then, free radical scavenging activity of each solution was calculated as “% inhibition” according to the following equation: % inhibition=[1−(Asample/Ablank)]×100, wherein Ab1ank is the absorbance of the control group (excluding the test sample) and Asample is the absorbance of the test compound.

[5] = system: hyperpigmentation; details: Ortonne and Passeron 2005; cited from earlier work
[6] = system: melanin pigmentation in the epithelium; test: Fontana-Masson's silver staining, melanin-pigmented area; type: in vivo, brown guinea pig; details: week 4; 2% sample
Description: In order to observe the morphological change of the skin tissue using an optical microscope, the extracted skin tissue was fixed in a 10% neutral formalin solution for 12 hours and washed with flowing water. After dehydrating in 70, 80, 95 and 100% ethanol followed by washing with xylene, the tissue was embedded in paraffin and 4 μm-thick samples were prepared using a microtome.
Paraffin was removed from the sample using xylene. After staining the sample for 60 minutes in silver nitrate solution at 56° C. according to the Masson's method (1928), followed by washing, color-toning 0.2% gold chloride solution and washing again, the sample was kept in 5% sodium thiosulfate solution for 5 minutes. Subsequently, after washing the sample once again, followed by counterstaining in nuclear fast red solution, dehydration in 95%, 95%, 100% and 100% alcohol and washing with xylene, the sample was put in Canada balsam for microscopic observation. The percentage of the melanin-pigmented area was calculated using an image analysis software.

[7] = biological target: tyrosinase (Homo sapiens, UniProt P14679); details: Briganti et al. 2003; cited from earlier work
[8] = system: UVB-irradiated skin; test: Transepidermal water loss (TEWL), SKH-1 hairless mouse; type: in vivo; details: for TEWL: RA 0.01%, GT/WT/BT 2%
Description: (§2) 7-week-old SKH-1 hairless mice was purchased from Charles River (Japan). The animals were accustomed to the test environment for 1 week. The animals were housed in individual cages under the environment of 22±1° C. and 50±5% relative humidity with 12-hour alternate dark/light cycles. Feed and water were given ad libitum. The animals were grouped into 7 groups as follows, with 7 mice per each:
(§3) The mouse was subjected to UVB radiation (302 nm sunlamp) on the back for […], 3 times a week. The radiation amount was 1 minimal erythemal dose (MED: 60 mJ/cm^2) on the 1st week, 2 MED (120 mJ/cm^2) on the 2nd week, 3 MED (180 mJ/cm^2) on the 3rd week, and 4 MED (240 mJ/cm^2) on the 4th to 12th weeks. The radiation with 4 MED was carried out once a week during the test period.
(§4) After inducing wrinkle formation, 200 μL of saline or the sample was applied for 4 weeks, 5 times a week (2%: 0.26 g/kg BW/day). RA was applied together with polyethylene glycol at a concentration of 0.01% for 4 weeks, 5 times a week, twice a day, with 200 μL per each.
(§5) Skin erythema index, water content and transepidermal water loss (TEWL) were measured in a non-invasive manner using a mexameter, a corneometer and a tewameter, once a week during the test period.

[9] = Hematological analysis; type: in vivo, SKH-1 hairless mouse; details: RA 0.01%, GT/WT/BT 2%
Description: Blood sample was added to a blood collection tube containing the anticoagulant K2EDTA and mixed for more than 5 minutes. Then, concentration of erythrocytes, leukocytes, neutrophils, eosinophils, basophils, lymphocytes, monocytes, platelets and hemoglobin and hematocrit were measured using a hematological analyzer.

[10] = system: MMP-3; test: RT-PCR, MMP-3 mRNA in skin tissue; type: in vivo, SKH-1 hairless mouse; details: RA 0.01%, GT/WT/BT 2%
Description: 50 mg of the sample from the mouse back skin kept at low temperature was homogenized with 1 mL of Trizol. The homogenized sample was incubated at room temperature for 5 minutes after adding 200 μL of chloroform, and centrifuged at 15,000 rpm and 4° C. for 10 minutes. After collecting and transferring the supernatant to a fresh tube and adding 500 μL of isopropyl alcohol, the sample was centrifuged at 4° C. and 15,000 rpm for 15 minutes. The resulting RNA pellet was washed with 1 mL of 70% ethanol and centrifuged at 4° C. and 15,000 rpm for 15 minutes. The RNA pellet finally obtained by removing the supernatant was diluted with diethylpyrocarbonate (DEPC) and quantitated with 1.8<optical density (OD; A260/A280)<2.0 using a white light/UV transilluminator. cDNA was synthesized from total RNA at a concentration of 0.1-1 μg/μL using the Cycle Script RT PreMix (dT20) kit. The cDNA synthesis was performed by 12 cycles of 1 minute at 30° C. and 4 minutes at 50° C. in 205 μL of DEPC, and the sample was heated at 95° C. for 5 minutes. Polymerase chain reaction (PCR) was carried out in 15.2 μL of sterilized water containing 2 μL of template and […] of primer using the Accupower™ PCR PreMix kit. The reaction was carried out for 35 cycles. […] DNA band density was calculated using the Kodak Gel Logic 100 image analysis system.

[11] = system: UVB-irradiated skin; test: Skin erythema index, SKH-1 hairless mouse; type: in vivo; details: for skin erythema index: RA 0.01%, GT/WT/BT 2%
Description: as §2, §3, §4, §5

[12] = system: UVB-induced wrinkles; test: Measurement of wrinkles (skin replica, Visioline); type: in vivo, SKH-1 hairless mouse; details: RA 0.01%, GT/WT/BT 2%
Description: as §2, §3, §4
Skin replica was prepared from the back skin of the hairless mouse using the Silflo impression material (Flexico, England). The roughness of the skin was assessed using Visioline. Total wrinkle area (mm^2) was calculated.

[13] = Organ weight (spleen, thymus); type: in vivo, SKH-1 hairless mouse
Description: After extracting the skin, a portion of the skin was fixed in 10% neutral-buffered formalin solution for histological analysis and the remainder was kept in a refrigerator (−80° C.) for analysis of MMPs. Thymus and spleen extracts were washed with saline and weighed on an electronic scale after removing water with filer paper.

[14] = system: UVB-irradiated skin; test: Skin water content (corneometer), SKH-1 hairless mouse; type: in vivo; details: for water content of the skin: RA 0.01%, GT/WT/BT 2%
Description: as §2, §3, §4, §5

[15] = Water and feed intake, feed efficiency and body weight; type: in vivo, SKH-1 hairless mouse
Description: Water and feed intake of the test animal was measured once a week. Body weight was measured between 09:00 and 10:00 in the morning, once a week during the test period.

Sequence of tyrosinase (P14679 19-529, species assumed): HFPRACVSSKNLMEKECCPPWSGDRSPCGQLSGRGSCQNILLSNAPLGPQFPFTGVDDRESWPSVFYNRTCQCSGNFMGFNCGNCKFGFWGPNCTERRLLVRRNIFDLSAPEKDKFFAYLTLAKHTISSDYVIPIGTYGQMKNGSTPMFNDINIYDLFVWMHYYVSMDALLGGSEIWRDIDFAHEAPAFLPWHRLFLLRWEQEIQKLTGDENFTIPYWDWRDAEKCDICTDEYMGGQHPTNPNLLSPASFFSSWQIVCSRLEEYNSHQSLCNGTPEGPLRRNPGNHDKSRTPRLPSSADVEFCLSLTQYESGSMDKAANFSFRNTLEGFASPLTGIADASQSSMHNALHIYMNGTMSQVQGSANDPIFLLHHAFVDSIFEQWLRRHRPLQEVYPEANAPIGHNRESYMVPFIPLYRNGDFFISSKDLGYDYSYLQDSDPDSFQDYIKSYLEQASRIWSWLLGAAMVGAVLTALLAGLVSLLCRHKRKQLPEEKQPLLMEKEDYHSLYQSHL

Oc1ccc(O)cc1 [HQ, Hydroquinone]
% of Melanin pigment (Table 5, gp 100 protein) [1]: 4.4 ± 0.8^c %
Melanin pigment (area; Table 5, gp 100 protein) [1]: 469 ± 111 μm^2
area of gp 100 protein expression, decrease by, as compared to the group C [1]: 68%
% of S-100 Protein [2]: 4.3 ± 0.5^ab %
S-100 Protein area [2]: 511 ± 89 μm^2
area of S-100 protein expression, decrease by, as compared to the control groups [2]: 69%
melanin index ([3]; week 0): 724.8 ± 22.8^a AU
melanin index ([3]; week 1): 702.9 ± 24.4^a* AU
melanin index ([3]; week 2): 673.9 ± 26.1^c AU
melanin index ([3]; week 3): 636.7 ± 25.8^b AU
melanin index ([3]; week 4): 583.0 ± 28.0^b AU
melanin index decreased by, as compared to the group C ([3]; week 4): 17%
Electron donating ability [4]: 93%
improves hyperpigmentation in % of cases [5]: 14-70%
% of melanin pigment [6]: 9.5 ± 1.5^bc %
Melanin pigment area [6]: 1163 ± 268 μm^2
melanin pigmented area decreased by, as compared to the control group [6]: 53%
decreases tyrosinase activity up to [7]: up to 90%

CC1=C(/C=C/C(C)=C/C=C/C(C)=C/C(=O)O)C(C)(C)CCC1 [RA, retinoic acid]
TEWL ([8]; week 1): 24.16 ± 4.49^c** g/m^2/h
TEWL ([8]; week 2): 18.33 ± 4.85^b** g/m^2/h
TEWL ([8]; week 3): 18.76 ± 3.66^c g/m^2/h
TEWL lower as compared to the control group ([8]; week 4): 58%
TEWL ([8]; week 4): 16.90 ± 3.59^b g/m^2/h
Basophil [9]: 0.004 ± 0.04^a k/μl
Eosinophil [9]: 0.050 ± 0.05^a k/μl
HCT [9]: 43.442 ± 0.87^b %
Hb [9]: 13.800 ± 0.18^b g/dl
Lymphocyte [9]: 6.462 ± 0.34^c k/μl
Monocyte [9]: 0.204 ± 0.06^b k/μl
Neutrophil [9]: 2.340 ± 0.39^cd k/μl
Platelet [9]: 517.80 ± 16.44^b k/μl
RBC [9]: 4.274 ± 0.17^b M/μl
WBC [9]: 9.114 ± 0.55^b k/μl
expression level of MMP-3 mRNA lower as compared to the control group [10]: 77%
skin erythema index ([11]; week 1): 314.38 ± 17.33^c AU
skin erythema index ([11]; week 2): 301.10 ± 16.60^b AU
skin erythema index ([11]; week 3): 294.43 ± 13.14^b AU
skin erythema index lower as compared to the control group ([11]; week 4): 32%
skin erythema index ([11]; week 4): 282.64 ± 15.50^b AU
decreased wrinkle area as compared to the control group [12]: 49%
Spleen absolute weight ([13]; RA 0.01%, GT/WT/BT 2%): 0.136 ± 0.015^a g
Spleen relative weight ([13]; RA 0.01%, GT/WT/BT 2%): 0.475 ± 0.053^a g/100 g body weight
Thymus absolute weight ([13]; RA 0.01%, GT/WT/BT 2%): 0.019 ± 0.005^ab g
Thymus relative weight ([13]; RA 0.01%, GT/WT/BT 2%): 0.067 ± 0.01^ab g/100 g body weight
organ weight relative to the normal group ([13]; p <0.05): significantly lower
water content of the skin ([14]; week 1): 57.99 ± 7.31^b AU
water content of the skin ([14]; week 2): 65.70 ± 5.75^c AU
water content of the skin ([14]; week 3): 71.42 ± 5.82^cd AU
water content higher as compared to the control group ([14]; week 4): 207%
water content of the skin ([14]; week 4): 88.59 ± 4.87^cd AU
Food efficiency ratio ([15]; (Body weight gain/Food intake) × 100): −0.94 ± 1.71^a %
Body weight gain ([15]; RA 0.01%, GT/WT/BT 2%): −0.050 ± 0.09^a g/day
Food intake ([15]; RA 0.01%, GT/WT/BT 2%): 5.36 ± 1.06^a g/day
Water intake ([15]; RA 0.01%, GT/WT/BT 2%): 8.57 ± 1.75^b Ml/day
water intake as compared to the control group ([15]; p <0.05): remarkably higher water intake
